From PMC9926489, “Chemical Optimization of Selective Pseudomonas aeruginosa LasB Elastase Inhibitors and Their Impact on LasB-Mediated Activation of IL-1β in Cellular and Animal Infection Models” (ACS Infectious Diseases, 2023) come the findings set out here.

The structures appear in SMILES notation.

Series [1] has as its target T1, LasB (P. aeruginosa PAO1 culture supernatant) (Pseudomonas aeruginosa, UniProt P14756).
T1 construct: The mature LasB protein is a 33 kDa metalloprotease, which is secreted from P. aeruginosa; endogenous in cells; host or cells: P. aeruginosa PAO1 culture supernatant, filtered and dialyzed
Description: Elastin Congo Red (ECR) assay, elastin hydrolysis by dialyzed PAO1 culture supernatant. The format is biochemical. The conditions noted are these: 25 μM inhibitor. From the text: This was chosen as the starting point for a medicinal chemistry-driven lead optimization program aiming to improve potency and solubility whilst retaining selectivity against host metalloenzymes. All synthesized compounds were initially assessed in a fluorimetric assay measuring hydrolysis of a fluorogenic substrate Abz-Ala-Gly-Leu-Ala-4-nitrobenzylamide (Abz-AGLA-Nba) by purified LasB and IC50 values determined (Tables 1 and 2). Inhibition of elastin hydrolytic activity was confirmed using an orthogonal assay measuring hydrolysis of Elastin Congo Red (ECR) complex by LasB prepared directly from a P. aeruginosa culture supernatant (Tables 1 and 2). […] Aqueous solubility was determined for most compounds (Tables 1 and 2).
Inhibition of elastin hydrolysis by native LasB, secreted in P. aeruginosa culture supernatants, was measured using the Elastin Congo Red (ECR) assay. Culture supernatants from P. aeruginosa strain PAO1, grown in LB medium at 37 °C for 24 h, were filtered and dialyzed against 50 mM Tris-HCl pH 7.4, 2.5 mM CaCl2 solution at 4 °C and supplemented with 0.01%Triton X-100, 10 mg/mL ECR (Sigma) and 25 μM inhibitor compounds. The reaction mixture was incubated for 16 h at 37 °C with shaking before centrifugation and recovery of the supernatant and measurement of solubilized congo red by absorbance (OD495) using an EnSight multimode plate reader (PerkinElmer).

The nature of series [2]: Cytotoxicity screening (MTS), BSMC. The conditions noted are these: human, bronchial smooth muscle cells (BSMC). Type of series: cell-based. As to the method:
Bronchial smooth muscle cells (BSMC, Lonza CC-2576), small airway epithelial cells (SAEC, Lonza CC-2547), or HepG2 cells (ATCC HB-8065) were seeded in 96-well plates at a density of 25,000 per well. Culture of these cells throughout the protocol utilized incubation at 37 °C, 5% CO2 in a humidified atmosphere, with BSMC and SAEC cells cultured in cell-specific media (Lonza) and HepG2 cells cultured in RPMI 1640 medium containing Glutamax (Gibco) and 10% fetal bovine serum. Plates containing BSMC cells were collagen coated to assist with cell adhesion. Following an overnight settling period, media was replaced with fresh media, with, or without, compound. Compound concentrations tested were 1, 3, 10, 30, and 100 μM, in duplicate. The cells were incubated with compound for 24 h. Control (1% DMSO) and positive standards terfenadine- and salmeterol-treated groups were included for both cell lines. […] The reaction was stopped with 12.5 μL of 10% SDS, plates briefly shaken, and absorbance (490 nm) read using a Spectramax M5e plate reader (Molecular Devices). Percentages of viable cells were calculated as: (test sample Abs 490 nM-mean blank Abs 490 nm)/(mean control Abs 490 nM-mean blank Abs 490 nm) × 100.

Series [3] deals with T2, secreted LasB in P. aeruginosa PAO1-infected THP-1 macrophages (Pseudomonas aeruginosa, UniProt P14756).
T2 construct: The mature LasB protein is a 33 kDa metalloprotease, which is secreted from P. aeruginosa; endogenous in cells; host or cells: P. aeruginosa PAO1 infecting human THP-1 macrophages (MOI 10:1); supernatant after 2 h
Briefly: LasB activity (Sub115 hydrolysis) in supernatants of P. aeruginosa-infected THP-1 macrophages. The format is cell-based. The conditions noted are these: PAO1-infected THP-1 macrophages, 2 h, inhibitor at 4 μM. As for the experimental part: Further to showing in vitro inhibition of LasB-mediated pro-IL-1β proteolysis, experiments were performed to determine the effect of compounds 12 and 16 on IL-1β activation and functionality in human macrophage cell cultures infected with P. aeruginosa PAO1, or an isogenic lasB deletion mutant thereof (ΔlasB). In these experiments, the levels of LasB activity in culture supernatants were measured via hydrolysis of the Sub115 fluorescent peptide, while the effect of LasB activity on IL-1β activation (functionality) was measured using a luciferase reporter cell line sensitive to IL-1β induction (Figure 3).
Human THP-1 macrophages were cultured by conventional methods then, pre-infection, culture media were replaced by RPMI lacking phenol red and antibiotics. Compounds VX-765 (caspase-1 inhibitor, developed by Vertex) and/or LasB inhibitors were added, immediately followed by inoculation with P. aeruginosa PAO1 or an isogenic lasB deletion mutant (ΔlasB), previously grown in Luria broth to late exponential phase (OD600 = 1.2) then washed and diluted in PBS, at a multiplicity of infection (MOI) of 10 to 1. After 2 h post-infection, 50 μL aliquots of supernatant were removed and used to quantitate both LasB activity and IL-1β functionality. To determine LasB activity, 50 μL of supernatant was added to Sub115 IL-1β peptide and hydrolysis of Sub115 was monitored spectrophotometrically with excitation at 355 nm and emission at 450 nm, as described above. Results were expressed as relative fluorescence units (RFU).
In the first variation, experimental infections were performed with P. aeruginosa PAO1 and ΔlasB bacteria incubated with varying quantities of inhibitor at final concentrations ranging from 0.5 to 8 μM. In the second, cells were treated and infected in the same manner and also treated with 5 μM VX-765 to provide a control for IL-1β activation by the inflammasome pathway.

T2 sequence (P14756 198-498): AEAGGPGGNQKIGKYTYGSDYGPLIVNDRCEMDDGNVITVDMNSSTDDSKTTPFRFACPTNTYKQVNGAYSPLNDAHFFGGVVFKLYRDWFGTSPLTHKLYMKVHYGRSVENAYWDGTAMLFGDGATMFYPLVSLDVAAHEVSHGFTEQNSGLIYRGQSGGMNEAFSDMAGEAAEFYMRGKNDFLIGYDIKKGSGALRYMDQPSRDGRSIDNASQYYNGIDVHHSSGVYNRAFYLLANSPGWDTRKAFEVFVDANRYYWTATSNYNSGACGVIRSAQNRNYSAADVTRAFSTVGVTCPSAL
T1 sequence (P14756 198-498): as above

Broadly, the IC50 is the concentration needed to halve the response being measured. Lower therefore signals greater potency. `COc1cc2sc(CNC(=O)C3(CC(=O)O)Cc4ccccc4C3)nc2cc1OCCC[N+](C)(C)C` [Compound 12]: the “Elastin hydrolysis @ 25 μM (% inh)” value in series [1] was 64 % inh. The half-inhibitory concentration (IC50) at 24 h in series [2] was above 100 µM. For the same molecule, in series [3], the “LasB activity in culture supernatant (Sub115 hydrolysis)” value was “complete abolition of activity”.

On to `COc1cc2sc(CNC(=O)C3(CC(=O)O)Cc4cc(F)c(F)cc4C3)nc2cc1OCCC[N+](C)(CCO)CCO` [Compound 16], for which the “Elastin hydrolysis @ 25 μM (% inh)” value in series [1] is recorded as 73 % inh. For the same molecule, the half-inhibitory concentration (IC50) at 24 h in series [2] was above 100 µM. In series [3], the “LasB activity in culture supernatant (Sub115 hydrolysis)” value is on record as “complete abolition of activity”.
